Data published in US20030108512A1, “Modified prostaglandin compounds and analogs thereof, compositions containing the same useful for the treatment of cancer” (priority 2001, published 2003).

Tests used:
[1] = tested on: human amelanotic melanoma cell line (LOX); experiment: Collagen degradation inhibition assay (fluorescent-labelled Type I collagen matrix seeded with tumor cells); format: cell-based; settings: n=4, FIGS. 2-4; for IC50: LOX cells on labelled Type I collagen film; for dosage at which collagen degradation activity by LOX cells was inhibited: dosages tested about 10^−6 to 10^3 μM
Text: The assay for screening antimetastatic agents is comprised of a collagenous matrix comprising collagenous components including but not limited to Type I or Type VI collagen or denatured collagen such as gelatin to form a scaffold-matrix. The scaffold matrix is subsequently coated with blood-borne components such as fibronectin, laminin, and fibrin for inducing adherence of the tumor cells and thereafter, labeled with quench fluorescent dyes. During performance of the assay, tumor cells that are present, adhere, ingest and invade the labeled scaffold-matrix resulting in the release of highly fluorescent peptides. Generally, tumor cells include a specific cell structure typically comprised of tentacles or arms (i.e. invadopodia) which secrete specific digestive enzymes including seprase, dipeptidyl peptidase IV (DPPIV), membrane Type-1 matrix metalloproteinases, and the like, to breakdown the collagen matrix. The fluorescence becomes visible only in the presence of these specific digestive enzymes produced by the tumor cells and increases in proportion to the activity of the digestive enzymes, thus providing a qualitative/quantitative measure of the invasiveness of the tumor cells. Other labeling methods including, but not limited to the use of, biotin, color dyes, and radioactive probes may also be used. As described herein, the assay utilizes a thin coating of collagen labeled with a fluorescent dye probe to form a scaffold collagen matrix, and tumor cells. The scaffold collagen matrix simulates the extracellular environment that is attacked by tumor cells during metastasis. The tumor cells attack the matrix by secreting proteolytic enzymes that break the collagen into peptide fragments. The peptide fragments release the fluorescent dye probe, and fluorescent light is emitted. The observed light intensity of the fluorescence correlates proportionally with the collagen degradation activity of the tumor cells. The tumor cells used in the test samples were generated from a human amelanotic melanoma cell line (LOX). A solution of a Type I collagen was prepared at a concentration of about 3.56 mg/ml. The collagen solution was used to form a coating of a monolayer of Type I collagen on a 96-well microtiter plate. […] Fluorescence readings were made using a microtiter plate fluorescence reader set at 485 nm/538 nm (Ex/Em). […] The collagen degradation activity of the LOX cells was detected through the cleavage and release of fluorescent collagen peptides from the labeled collagen matrix film as described above. A positive fluorescence signal, ΔF indicates the presence of collagen degradation activity. […]

[2] = tested on: LOX cells; experiment: Apoptosis assay (Vybrant Apoptosis Assay Kit #4, YO-PRO); format: cell-based, human; settings: overnight, n=4, FIGS. 9-11
Protocol: An apoptosis assay marketed as Vybrant Apoptosis Assay Kit #4 from Molecular Probes, Inc., was obtained for the test.
The LOX cell cultures were incubated overnight.
The apoptosis assay was performed four times (n=4) for each test compound.

SMILES | IC50 ([1]; Homo sapiens) | dosage at which collagen degradation activity by LOX cells was inhibited [1] | dosages giving a marked increase in the incidence of apoptosis [2] | IC50 [1] | dosages causing LOX cells to enter apoptosis [2]
CCCCCC(O)CC[C@@H]1C2Cc3cccc(OCC(=O)O)c3CC2C[C@H]1O (stereo partly drawn) [Compound V, reference compound] | 10 nM | about 2.5×10^−3 μM | over 100 μM |  | 
CNC(=O)[C@H](Cc1ccccc1)NC(=O)[C@H](CC(C)C)[C@H](CSc1cccs1)C(=O)NO [MMP inhibitor, BATIMASTAT®, reference compound] |  | over 10^−4 μM |  | 0.2 nM | over 2 μM
